Experimental data as given in PMC4526861, “Inhibition of protein kinase C by isojacareubin suppresses hepatocellular carcinoma metastasis and induces apoptosis in vitro and in vivo” (Scientific Reports, 2015).

Key:
HepG2 cells = test: Cell proliferation assay (CCK-8), HepG2; type: cell-based, human
Method: (§1) The human HCC cell lines QGY-7703, SMMC-7721 and HepG2 and the liver cell line QSG-7701 were supplied by the Cell Resource Center, Institute of Life Sciences, Chinese Academy of Medical Science. QGY-7703, SMMC-7721 and QSG-7701 cells were cultured in 1640 medium (Gibco), and HepG2 cells were cultured in DMEM medium (Gibco) at 37 °C in moist air supplemented with 5% CO2. All media were supplemented with 10% fetal bovine serum (FBS) and 100 Units/mL of penicillin/streptomycin.
(§2) The cell viability assay was performed as previously reported using a Cell Counting Kit-8 (CCK-8; Dojindo, Kumamoto, Japan)[33][34]. The relative cell viability was presented as % inhibition and calculated using the following formula: […]

PKCμ = molecular target: T1, PKCμ (Homo sapiens, UniProt Q15139); test: Cell-based pull-down assay, PKCμ; type: binding; settings: HepG2 lysates
T1 construct: Endogenous cPKC (PKCα) and nPKC (PKCδ, PKCε and PKCμ) in HepG2 lysates were pulled down; endogenous in cells; host or cells: HepG2
T1 sequence (Q15139 1-912): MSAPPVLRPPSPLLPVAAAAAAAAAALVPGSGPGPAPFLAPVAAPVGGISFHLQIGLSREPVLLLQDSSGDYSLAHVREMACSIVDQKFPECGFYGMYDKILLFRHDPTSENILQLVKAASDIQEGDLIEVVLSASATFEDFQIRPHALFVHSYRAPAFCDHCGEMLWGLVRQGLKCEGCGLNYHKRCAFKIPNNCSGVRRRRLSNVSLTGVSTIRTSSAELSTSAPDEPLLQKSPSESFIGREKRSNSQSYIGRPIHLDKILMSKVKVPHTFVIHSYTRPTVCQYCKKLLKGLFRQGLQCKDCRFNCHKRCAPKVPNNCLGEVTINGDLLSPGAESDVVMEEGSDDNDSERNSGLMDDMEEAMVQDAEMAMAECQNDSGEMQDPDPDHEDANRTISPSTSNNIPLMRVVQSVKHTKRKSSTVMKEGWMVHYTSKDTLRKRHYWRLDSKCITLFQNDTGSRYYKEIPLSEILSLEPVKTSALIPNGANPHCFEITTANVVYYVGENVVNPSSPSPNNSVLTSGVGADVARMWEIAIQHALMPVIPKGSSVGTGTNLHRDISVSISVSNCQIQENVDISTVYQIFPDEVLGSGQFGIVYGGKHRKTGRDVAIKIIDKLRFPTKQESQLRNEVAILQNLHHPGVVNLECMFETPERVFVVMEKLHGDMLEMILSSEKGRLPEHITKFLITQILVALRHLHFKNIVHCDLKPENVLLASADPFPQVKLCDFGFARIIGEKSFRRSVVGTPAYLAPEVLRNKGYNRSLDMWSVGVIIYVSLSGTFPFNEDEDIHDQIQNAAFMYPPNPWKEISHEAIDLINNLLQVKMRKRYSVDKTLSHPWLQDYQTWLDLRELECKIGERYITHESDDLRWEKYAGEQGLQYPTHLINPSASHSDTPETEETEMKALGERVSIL
Method: (§3) To identify whether ISJ and compound 7 target PKC in cells, we performed pull-down experiments using ISJ- and compound 7-coupled Sepharose beads with HepG2 cell lysates. Endogenous cPKC (PKCα) and nPKC (PKCδ, PKCε and PKCμ) in HepG2 lysates were pulled down by ISJ-coupled CNBr-activated Sepharose 4B beads (Fig. 5a).
(§4) The control beads were prepared by incubating the beads with DMSO. Proteins (500 μg) from lysed HepG2 cells were mixed with either the control beads, compound 7-coupled beads, or ISJ-coupled beads (100 μL) in reaction buffer [50 mM Tris (pH 7.5), 5 mM EDTA, 150 mM NaCl, 1 mM DTT, 0.01% NP-40, 2 μg/mL BSA, 1 mM PMSF, 1% protease inhibitor mixture]. After incubation with gentle rocking overnight at 4 °C, the beads were washed 5 times with washing buffer [50 mM Tris (pH 7.5), 5 mM EDTA, 150 mM NaCl, 1 mM DTT, 0.01% NP-40, 1 mM PMSF], and binding was visualized by western blotting.

SMMC-7721 cells = test: Cell proliferation assay (CCK-8), SMMC-7721; type: cell-based, human; settings: mean ± SD, at least three independent experiments
Method: as §1, §2

[1] = Body weight in xenograft study; type: in vivo, BALB/c-nu nude mice; settings: 5 mg/kg, tail vein, two weeks
Method: HepG2 cells were harvested and resuspended in PBS. A total of 5 × 10^6 cells were subcutaneously injected into the right flank. Tumor volume was calculated using the following formula: V = (L × W^2)/2, where L is the length and W is the width of the tumor nodules measured with vernier calipers. Once the volume of the tumors reached 75–100 mm^3, the mice were randomly divided into three groups (n = 5). The mice were treated every other day for two weeks with tail vein injections of either vehicle (5% ethanol and 2.5% polyethylene glycol in saline), compound 7, or ISJ (5 mg/kg in the vehicle). Body weights were measured before each drug injection. After the 15th day, the mice were euthanized, and the tumors were isolated, weighed and photographed.

c-PARP, p53 and p21 = test: Western blot of apoptotic proteins, HepG2; type: cell-based, human; settings: HepG2, 24 h
Method: Additional PKC targeting effects involved in the early response of major MAPK phosphorylation and the late response of HCC cell invasion and apoptosis were investigated. After 24 h of treatment with ISJ at the indicated concentrations, the total protein lysates from HCC cells were analyzed (Fig. 6). ISJ inhibited the phosphorylated, activated forms of c-Raf, MEK1/2 and ERK1/2 in the MAPK signaling pathway in both HepG2 and QGY-7703 cells (Fig. 6a). […] In contrast, E-cadherin expression was elevated, specifically at the highest concentration of ISJ (20 μM) (Fig. 6b). In addition, we analyzed several representative apoptotic proteins, including cleaved PARP (c-PARP), p53 and p21. […] These findings support our hypothesis that ISJ restrains HCC cell metastasis and induces HCC cell apoptosis by specifically inhibiting PKC.
The total membrane and cytosolic proteins were extracted using a Membrane and Cytosol Protein Extraction Kit (Beyotime). Extracted proteins from cells or animal tissues were separated by SDS-PAGE and transferred to polyvinylidene difluoride (PVDF) membranes (Bio-Rad). The PVDF membranes were blocked with 5% nonfat milk and incubated with primary antibodies overnight, followed by incubation with a donkey anti-rabbit or anti-mouse secondary antibody (IRDye 800, LI-COR, Biosciences). […] The intensity was quantitative with Quantity One software (Bio-Rad). […]

QSG-7701 hepatocytes = test: Cell proliferation assay (CCK-8), QSG-7701 hepatocytes; type: cell-based, human; settings: nonmalignant hepatocytes; mean ± SD
Method: as §1, §2

PKCδ = molecular target: T2, PKCδ (Homo sapiens, UniProt Q05655); test: Cell-based pull-down assay, PKCδ; type: binding; settings: HepG2 lysates
T2 construct: Endogenous cPKC (PKCα) and nPKC (PKCδ, PKCε and PKCμ) in HepG2 lysates were pulled down; endogenous in cells; host or cells: HepG2
T2 sequence (Q05655 whole entry): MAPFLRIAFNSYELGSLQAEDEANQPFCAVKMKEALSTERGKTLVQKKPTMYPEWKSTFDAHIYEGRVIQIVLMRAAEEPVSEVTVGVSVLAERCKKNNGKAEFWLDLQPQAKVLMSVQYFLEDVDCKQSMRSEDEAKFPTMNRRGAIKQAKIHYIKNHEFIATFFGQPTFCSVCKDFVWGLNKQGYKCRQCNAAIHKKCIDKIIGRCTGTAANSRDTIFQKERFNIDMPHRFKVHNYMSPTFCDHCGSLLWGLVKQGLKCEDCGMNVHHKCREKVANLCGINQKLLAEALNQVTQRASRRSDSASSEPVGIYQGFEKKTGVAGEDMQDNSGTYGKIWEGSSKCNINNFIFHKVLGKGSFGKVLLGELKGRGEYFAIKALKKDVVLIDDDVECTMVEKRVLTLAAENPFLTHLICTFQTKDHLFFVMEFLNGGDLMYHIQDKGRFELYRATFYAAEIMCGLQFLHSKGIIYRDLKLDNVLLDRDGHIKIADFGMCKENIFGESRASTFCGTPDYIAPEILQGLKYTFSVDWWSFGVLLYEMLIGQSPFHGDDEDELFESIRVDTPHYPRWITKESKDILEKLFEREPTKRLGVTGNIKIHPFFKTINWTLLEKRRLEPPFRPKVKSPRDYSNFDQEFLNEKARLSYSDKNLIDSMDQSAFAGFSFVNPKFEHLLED
Method: as §3, §4

## Isojacareubin [ISJ]
HepG2 cells; 50 μM
  Inhibitory Ratio (%) HepG2: 91.54%
HepG2 cells; mean ± SD, at least three independent experiments
  IC50: 2450 ± 230 nM
PKCμ
  pull-down of endogenous PKCμ by compound-coupled Sepharose 4B beads: pulled down
SMMC-7721 cells
  IC50: 1630 ± 50 nM
[1]
  change in body weight compared to vehicle-treated controls: no significant change
c-PARP, p53 and p21
  expression levels of c-PARP, p53 and p21: increased
QSG-7701 hepatocytes
  IC50: 47670 ± 80 nM
PKCδ
  pull-down of endogenous PKCδ by compound-coupled Sepharose 4B beads: pulled down
